Results published in patent publication US11554122B2, “Fused pentacyclic imidazole derivatives as modulators of TNF activity” (UCB Biopharma SRL, priority 2018, dated 2023).

Target: T1, TNFα (Homo sapiens, UniProt P01375)
T1 construct: a human whole blood assay driven by endogenously expressed TNFα; endogenous in cells; host or cells: EDTA anticoagulated human whole blood, stimulated with 1 ug/ml zymosan
Experiment: TNF human whole blood screening assay: CD11b expression on granulocytes after zymosan challenge
Type: cell-based
Conditions: whole blood IC50 multiplied by the unbound fraction (Fu) in human blood; read-out: free IC50 in the human whole blood assay
Procedure: Furthermore, the compounds in accordance with the present invention are potent inhibitors of CD11b expressed on granulocytes in human blood cells, when tested in the human whole blood assay as described herein.
TNF Human Whole Blood Screening Assay
The compounds according to the Examples were assessed in a human whole blood assay driven by endogenously expressed TNFα by measuring the expression of CD11b on granulocytes in human whole blood challenged with zymosan. Zymosan binds to TLR2 and other receptors, leading to NF-κB signalling which in turn induces the production of pro-inflammatory mediators, including TNFα. In turn, TNFα can stimulate the expression of CD11b on granulocytes.
Compounds were diluted from 10 mM DMSO stocks (final assay concentration of 0.2% DMSO) to generate a 10-point 2.5-fold serial dilution curve (for example, 20,000 nM to 5.3 nM final assay concentration). Diluted compound was preincubated with EDTA anticoagulated human whole blood for 60 minutes at 37° C. prior to stimulation with 1 ug/ml zymosan. After 3 hours stimulation with zymosan, the whole blood was stained with fluorescent labelled anti CD45 and anti CD11b antibodies. The samples were fixed and red blood cells lysed before analysis with a FACS CANTO II.
FACS (Fluoresceence Activated Cell Sorting) analysis was performed with FloJo software. SSC-A (Side Scatter Area of peak) and CD45 signal was used to identify granulocytes, followed by SSC-A and SSC-W (Side Scatter Width of peak) to select single cells. MESF (Molecules of Equivalent Soluble Fluorochrome) beads were used to calibrate the CD11b signal on single cell granulocytes. Activation of CD11b was inhibited in a dose dependent manner by the TNFα inhibitor.
Percentage inhibition of compounds was calculated against TNFα containing DMSO alone (control) and maximum inhibition generated with excess blocking anti-TNFα monoclonal antibody. An inhibition curve was constructed in ActivityBase using a 4 parameter logistic model (XLfit™). The point of inflexion between the fitted minimum and maximum effects of the inhibitor gives the IC50 value.
A calculated IC50 for the free compound (herein referred to as “free IC50”) that takes into account the extent of fraction unbound in blood was determined by multiplying the IC50 generated from the first assay (human whole blood screening assay) by the unbound fraction (Fu), generated from the second assay (human blood binding assay).

T1 sequence (P01375 77-233 limits assumed): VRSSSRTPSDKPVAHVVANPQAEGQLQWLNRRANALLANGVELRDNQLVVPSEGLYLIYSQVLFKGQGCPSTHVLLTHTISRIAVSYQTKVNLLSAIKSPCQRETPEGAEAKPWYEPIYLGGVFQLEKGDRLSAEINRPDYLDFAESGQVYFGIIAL

| SMILES | IC50 [nM] |
| --- | --- |
| CN1C(=O)c2cccc(OC(F)F)c2[C@H]2C[C@@H]1c1nc3ccc(-c4cnc([C@]5(C#N)C[C@@](C)(O)C5)c(F)c4)cc3n12 [Example 7, 1-[5-[(1R,11R)-18-(difluoromethoxy)-12-methyl-13-oxo-2,9,12-triazapentacyclo[9.8.1.02,10.03,8.014,19]icosa-3(8),4,6,9,14(19),15,17-heptaen-5-yl]-3-fluoropyridin-2-yl]-3-hydroxy-3-methylcyclobutane-1-carbonitrile] | < 4 |
| [2H]C([2H])([2H])N1C(=O)c2cccc(OC(F)F)c2[C@H]2C[C@@H]1c1nc3ccc(-c4cnc([C@]5(O)C[C@@](C)(C#N)C5)nc4)cc3n12 [Example 1, 3-[5-[(1R,11R)-18-(difluoromethoxy)-13-oxo-12-(trideuteriomethyl)-2,9,12-triazapentacyclo[9.8.1.02,10.03,8.014,19]icosa-3(8),4,6,9,14(19),15,17-heptaen-5-yl]pyrimidin-2-yl]-3-hydroxy-1-methylcyclobutane-1-carbonitrile] | ~6 |
| CN1C(=O)c2cccc(OC(F)F)c2[C@H]2C[C@@H]1c1nc3ccc(-c4cnc([C@]5(O)C[C@@](C)(C#N)C5)c(F)c4)cc3n12 [Example 4, 3-[5-[(1R,11R)-18-(difluoromethoxy)-12-methyl-13-oxo-2,9,12-triazapentacyclo[9.8.1.02,10.03,8.014,19]icosa-3,5,7,9,14(19),15,17-heptaen-5-yl]-3-fluoropyridin-2-yl]-3-hydroxy-1-methylcyclobutane-1-carbonitrile] | < 4 |
| CN1C(=O)c2cccc(OC(F)F)c2[C@H]2C[C@@H]1c1nc3ccc(-c4cnc([C@]5(C#N)C[C@@](C)(O)C5)nc4)cc3n12 [Example 6, 1-[5-[(1R,11R)-18-(difluoromethoxy)-12-methyl-13-oxo-2,9,12-triazapentacyclo[9.8.1.02,10.03,8.014,19]icosa-3(8),4,6,9,14(19),15,17-heptaen-5-yl]pyrimidin-2-yl]-3-hydroxy-3-methylcyclobutane-1-carbonitrile] | < 4 |

Further lines, results first:

| IC50 [nM] | SMILES |
| --- | --- |
| ~5 | C[C@]1(C#N)C[C@](O)(c2ncc(-c3ccc4nc5n(c4c3)[C@@H]3C[C@H]5NC(=O)c4cccc(OC(F)F)c43)cc2F)C1 [Example 5, 3-[5-[(1R,11R)-18-(difluoromethoxy)-13-oxo-2,9,12-triazapentacyclo[9.8.1.02,10.03,8.014,19]icosa-3,5,7,9,14(19),15,17-heptaen-5-yl]-3-fluoropyridin-2-yl]-3-hydroxy-1-methylcyclobutane-1-carbonitrile] |
| ~12 | C[C@]1(C#N)C[C@](O)(c2ncc(-c3ccc4nc5n(c4c3)[C@@H]3C[C@H]5NC(=O)c4cccc(OC(F)F)c43)cn2)C1 [Example 2, 3-[5-[(1R,11R)-18-(difluoromethoxy)-13-oxo-2,9,12-triazapentacyclo[9.8.1.02,10.03,8.014,19]icosa-3(8),4,6,9,14(19),15,17-heptaen-5-yl]pyrimidin-2-yl]-3-hydroxy-1-methylcyclobutane-1-carbonitrile] |
| ~6 | C[C@]1(C#N)C[C@](O)(c2ncc(-c3cc4c(cc3F)nc3n4[C@@H]4C[C@H]3NC(=O)c3cccc(OC(F)F)c34)cn2)C1 [Example 3, 3-[5-[(1R,11R)-18-(difluoromethoxy)-6-fluoro-13-oxo-2,9,12-triazapentacyclo[9.8.1.02,10.03,8.014,19]icosa-3(8),4,6,9,14(19),15,17-heptaen-5-yl]pyrimidin-2-yl]-3-hydroxy-1-methylcyclobutane-1-carbonitrile] |
